Structures are written as SMILES.

The nature of the data set: Thermo Scientific Acclaim RSLC 120 C18, 100 × 2.1 mm, 2.2 µm, 30 °C; A: 90% water + 10% methanol + 0.01% formic acid + 5 mM ammonium formate; B: methanol + 0.01% formic acid + 5 mM ammonium formate; gradient (min/%B) 0.1/1 3/39 14/99.9 16/99.9. Conditions: stereoisomer not certain.
As for `COP(=S)(OC)Oc1ccc(SC)c(C)c1`, the LC retention time was found to be 11 min.

As for `OC(CCN1CCCCC1)(c1ccccc1)C1CCCCC1` (stereo not drawn), the LC retention time came out at 7.86 min.

For `CC(C)=CC1C(C(=O)OCc2coc(Cc3ccccc3)c2)C1(C)C` (stereo not drawn), the LC retention time stood at 13.6 min.

Regarding `CCCc1nn(C)c2c(=O)[nH]c(-c3cc(C(=O)CN4CCN(CC=Cc5ccccc5)CC4)ccc3OCC)nc12`, the LC retention time was 9.28 min.

In the case of `CCOC(=O)C1C(OC(=O)c2ccccc2)CC2CCC1N2C` (stereo not drawn), the LC retention time was 5.46 min.

As to `N=c1nc(N2CCCCC2)cc(N)n1O`, the LC retention time is 4.88 min.

As for `CN1CCCC1c1cccnc1` (stereo not drawn), the LC retention time is 2.41 min.

Take `O=C1CN=C(c2ccccc2)c2cc([N+](=O)[O-])ccc2N1`: the LC retention time is 7.79 min.

`CN1C2CCC1CC(OC(=O)c1c[nH]c3ccccc13)C2` (stereo not drawn): the LC retention time turned out to be 5.09 min.

Consider `CCC1OC(=O)C(C)C(OC2CC(C)(OC)C(O)C(C)O2)C(C)C(OC2OC(C)CC(N(C)C)C2O)C(C)(OC)CC(C)C(=O)C(C)C(O)C1(C)O` (stereo not drawn), for which the LC retention time was determined as 9.18 min.

For the compound `C=C(C)C1Cc2c(ccc3c2OC2COc4cc(OC)c(OC)cc4C2C3=O)O1` (stereo not drawn), the LC retention time turned out to be 10.5 min.

Consider `CC1COCc2cc3c(cc21)C(C)(C)C(C)C3(C)C` (stereo not drawn), for which the LC retention time is 13.9 min.

For the compound `CC(C)C1(NC(=O)C2CC3c4cccc5[nH]cc(c45)CC3N(C)C2)OC2(O)C3CCCN3C(=O)C(Cc3ccccc3)N2C1=O` (stereo not drawn), the LC retention time stood at 8.17 min.

Turning to `CCC12CCCN3CCc4c(n(c5ccccc45)C(O)(C(=O)OC)C1)C32` (stereo not drawn), the LC retention time worked out at 5.04 min.

On to `CCC(C)(C)C(=O)OC1CC(C)C=C2C=CC(C)C(CCC3CC(O)CC(=O)O3)C21` (stereo not drawn), for which the LC retention time came out at 12.6 min.

Consider `CCCC(C(=O)c1ccccc1)N1CCCC1` (stereo not drawn), for which the LC retention time turned out to be 5.08 min.

For the compound `Cc1cnc(C(=O)NCCc2ccc(S(=O)(=O)NC(=O)NC3CCCCC3)cc2)cn1`, the LC retention time worked out at 8.11 min.

With `Cc1cn(C2CC(N=[N+]=[N-])C(CO)O2)c(=O)[nH]c1=O` (stereo not drawn), the LC retention time is 4.56 min.

Turning to `c1ccc(C(c2ccccc2)C2CCCCN2)cc1` (stereo not drawn), the LC retention time was 6.3 min.

With `CC12CCC3=C4CCC(=O)C=C4CCC3C1CCC2(O)CC#N` (stereo not drawn), the LC retention time was determined as 8.09 min.

As to `CC(N)Cc1ccc2occc2c1` (stereo not drawn), the LC retention time stood at 4.79 min.

`O=C(O)c1ccc2n[nH]nc2c1`: the LC retention time was 3.81 min.

In the case of `CN(CC=CC#CC(C)(C)C)Cc1cccc2ccccc12`, the LC retention time came out at 11 min.

`CCOP(=S)(OCC)SC1OCCOC1SP(=S)(OCC)OCC` (stereo not drawn): the LC retention time is 12.1 min.

In the case of `NCCc1cnc[nH]1`, the LC retention time was 1.58 min.

With `CCOP(=S)(OCC)SCSC(C)(C)C`, the LC retention time was determined as 12.2 min.

On to `CC=C(C)C(=O)OC1CC(OC(C)=O)C2(C(=O)OC)COC3C2C12COC(O)(C(=O)OC)C2C(C)(C12OC1(C)C1CC2OC2OC=CC21O)C3O` (stereo not drawn), for which the LC retention time came out at 7.56 min.

As for `CCCN(CCC)c1c([N+](=O)[O-])cc(C(C)C)cc1[N+](=O)[O-]`, the LC retention time is 13.2 min.

In the case of `CCN(Cc1ccncc1)C(=O)C(CO)c1ccccc1` (stereo not drawn), the LC retention time was determined as 6.03 min.

Take `CN1CCC23c4c5ccc(O)c4OC2CCCC3C1C5` (stereo not drawn): the LC retention time was 3.84 min.

Turning to `CCCCC1=NC2(CCCC2)C(=O)N1Cc1ccc(-c2ccccc2-c2nn[nH]n2)cc1`, the LC retention time stood at 9.44 min.

`CNCCCC12CCC(c3ccccc31)c1ccccc12`: the LC retention time amounted to 8.08 min.

Turning to `COC(=O)C(NC(=O)c1nn(CC2CCCCC2)c2ccccc12)C(C)(C)C` (stereo not drawn), the LC retention time came to 12.9 min.

On to `CCCc1nn(C)c2c(=O)[nH]c(-c3cc(C(=O)CN4CCN(CCO)CC4)ccc3OCC)nc12`, for which the LC retention time stood at 6.94 min.

Regarding `CN(C)C(=O)Oc1cc(OC(=O)N(C)C)cc(C(O)CNC(C)(C)C)c1` (stereo not drawn), the LC retention time was determined as 5.16 min.

In the case of `CC(Cc1ccc(C(C)(C)C)cc1)CN1CC(C)OC(C)C1` (stereo not drawn), the LC retention time stood at 10.7 min.

Take `CCOC(=O)C(CCc1ccccc1)NC(C)C(=O)N1C(C(=O)O)CC2CCCCC21` (stereo not drawn): the LC retention time turned out to be 9.55 min.

As to `CC1=C(C(=O)Nc2ccccc2)SCCO1`, the LC retention time was 7.46 min.

For the compound `CSC(=O)c1cccc2nnsc12`, the LC retention time worked out at 9.65 min.

As to `CC(C1=C(CCN(C)C)Cc2ccccc21)c1ccccn1` (stereo not drawn), the LC retention time was found to be 6.86 min.

Consider `CCCOc1ccc(S(=O)(=O)NCCC2CCCN2C)cc1-c1nc2c(CCC)nn(C)c2c(=O)[nH]1` (stereo not drawn), for which the LC retention time worked out at 7.83 min.

Turning to `CCCCCCCCCCOc1cc2c(=O)c(C(=O)OCC)c[nH]c2cc1OCC`, the LC retention time was 13.4 min.

As for `CCC1C2CC3C4N(C)c5ccccc5C45CC(C2C5O)N3C1O` (stereo not drawn), the LC retention time stood at 5.19 min.

`Cc1ccccc1N1CCN(CCc2nnc3n2CCCC3)CC1`: the LC retention time came to 5.66 min.

On to `CN1CCC23c4c5ccc(OC6OC(C(=O)O)C(O)C(O)C6O)c4OC2C(O)C=CC3C1C5` (stereo not drawn), for which the LC retention time amounted to 1.63 min.

As for `CCC(CC)OC1C=C(C(=O)O)CC(N)C1NC(C)=O` (stereo not drawn), the LC retention time came out at 4.73 min.

Consider `CNC(C)C(O)c1ccc(O)cc1` (stereo not drawn), for which the LC retention time came to 2.05 min.

For the compound `CCCN(CCC)c1c([N+](=O)[O-])cc(S(N)(=O)=O)cc1[N+](=O)[O-]`, the LC retention time was found to be 10.3 min.

`CCNc1nc(NC(C)(C)C)nc(SC)n1`: the LC retention time is 10.2 min.

Regarding `COc1ccc2nc(S(=O)Cc3ncc(C)c(OC)c3C)[nH]c2c1` (stereo not drawn), the LC retention time is 7.81 min.

Turning to `CCCc1nn(C)c2c(=S)nc(-c3cc(S(=O)(=O)N4CC(C)NC(C)C4)ccc3OCC)[nH]c12` (stereo not drawn), the LC retention time stood at 9.91 min.

Regarding `COc1cc(C=C2CCCC(=Cc3ccc(O)c(OC)c3)C2=O)ccc1O`, the LC retention time came out at 9.59 min.

`CCCCCn1cc(C(=O)c2ccccc2OC)c2ccccc21`: the LC retention time turned out to be 11.2 min.

For the compound `CCOC(=O)C(CCc1ccccc1)NC(C)C(=O)N1CC2(CC1C(=O)O)SCCS2` (stereo not drawn), the LC retention time came out at 8.23 min.

Turning to `CC12CC3CC(C)(C1)CC(N)(C3)C2`, the LC retention time was found to be 6.91 min.

On to `CC(C)(C)Nc1nc(N)[nH]c(=O)n1`, for which the LC retention time was found to be 3.99 min.

`CSc1nnc(C(C)(C)C)c(=O)[nH]1`: the LC retention time was 7.46 min.

Take `NC(=O)N1c2ccccc2C2OC2c2ccccc21` (stereo not drawn): the LC retention time is 6.04 min.

For `CC(C)C1(C)N=C(c2nc3ccccc3cc2C(=O)O)NC1=O` (stereo not drawn), the LC retention time came out at 6.1 min.

Consider `CC(O)(C(N)=O)c1ccccc1` (stereo not drawn), for which the LC retention time worked out at 12.9 min.

With `CC1CCC2N(C1)CC1C3CC4C(CC(O)C5CC(O)CCC54C)C3CCC1C2(C)O` (stereo not drawn), the LC retention time came to 6.44 min.

For `CC=C1CC(C)C(C)(O)C(=O)OCC2=CCN(C)CCC(OC1=O)C2=O` (stereo not drawn), the LC retention time was 5.16 min.

As for `CC1C2Cc3ccc(O)cc3C1(C)CCN2CCc1ccccc1` (stereo not drawn), the LC retention time turned out to be 6.08 min.

On to `CNC(C)Cc1ccc(O)c(O)c1` (stereo not drawn), for which the LC retention time was found to be 2.59 min.

Turning to `c1ccc2n[nH]nc2c1`, the LC retention time was determined as 4.76 min.

For the compound `CCCNC1CCc2nc(N)sc2C1` (stereo not drawn), the LC retention time worked out at 2.64 min.

With `CNC(=O)Nc1nc2ccccc2s1`, the LC retention time amounted to 7.13 min.

Regarding `CSc1nc(NC(C)C)nc(NC(C)C)n1`, the LC retention time worked out at 10.1 min.
